Results taken from patent publication US7754713B2, “4-benzimidazol-2-ylpyridazin-3-one derivatives” (Aventis Pharma S.A., priority 2004, dated 2010).

Tests used:
CDK2/Cyclin E = CDK2/Cyclin E (Homo sapiens, UniProt P24941); experiment: CDK2/Cyclin E kinase flashplate assay (33P incorporation into biotinylated Rb peptide); assay type: biochemical; details: CDK2/Cyclin E 20 nM, ATP 1 μM, Rb peptide 10 μM, 30 minute at 30° C.
Procedure: Functional Measurements to Ascertain IC50 Values:
A 96-well streptavidin-coated flashplate is used to assay potency of compounds according to formula (I) against CDK2/Cyclin E kinase. To carry out the assay, biotinylated-Rb peptide substrate (Biotin-[…]-OH) is solubilized at 1 mM in kinase buffer (Hepes 50 mM, NaCl 1 mM, MgCl2 5 mM pH 7.5) as a stock solution conserved at −20° C. in aliquots of 110 μl. The day of the experiment, an aliquot of this solution is thawed and diluted to 14.3 μM in kinase buffer, containing 1 mM dithithreitol (DTT) added in the buffer extemporarily.
70 μl of this solution is added in each well of the flashplate in order to achieve a final concentration of 10 μM (100 μl reactionnal volume). […] 10 μl of each of these solutions (or 10 μl of buffer+DTT for controls) are transferred to the testplate wells in order to achieve 10 μM, 3.33 μM, 1.11 μM, 0.37 μM, 0.12 μM, 0.04 μM and 0.01 μM as final concentrations, 1% DMSO (vol/vol). In each well, 10 μl of a solution of a mix of ^33PγATP/ATP are added in order to achieve 1 μM final concentration and a total of 1 μCi. The kinase reaction is initiated by addition of 10 μl of a solution at 200 nM of CDK2/Cyclin E in kinase buffer+DTT (or buffer+DTT for blanks) in order to achieve 20 nM final concentration. After addition of each reagent, the test-plate is shaked. The plates are incubated 30 minute at 30° C. with a shaking at 650 rpm. At the end of the incubation, the plates are washed 3 times with 300 μl of PBS (without calcium and magnesium) per well. The incorporation of ^33P to the peptide is measured by scintillation counting.

SMILES | IC50 (CDK2/Cyclin E) | melting point
COC(=O)c1ccc2nc(-c3cc(-c4ccncc4)n[nH]c3=O)[nH]c2c1 [Example 1, Methyl 2-(3-oxo-6-pyridin-4-yl-2,3-dihydropyridazin-4-yl)-1H-benzimidazole-5-carboxylate] | 124 nM | –
O=c1[nH]nc(-c2ccncc2)cc1-c1nc2ccc(Cl)cc2[nH]1 [Example 5, 4-(6-Chloro-1H-benzimidazol-2-yl)-6-pyridin-4-yl-2H-pyridazin-3-one] | 26 nM | –
O=c1[nH]nc(-c2ccncc2)cc1-c1nc2ccc(C(F)(F)F)cc2[nH]1 [Example 6, 4-(6-Trifluoromethyl-1H-benzimidazol-2-yl)-6-pyridin-4-yl-2H-pyridazin-3-one] | 214 nM | –
CN1CCN(CCCNC(=O)c2ccc3nc(-c4cc(-c5ccncc5)n[nH]c4=O)[nH]c3c2)CC1 [Example 9, 2-(3-Oxo-6-pyridin-4-yl-2,3-dihydropyridazin-4-yl)-1H-benzimidazole-5-carboxylic acid [3-(4-methylpiperazin-1-yl)propyl]amide] | – | > 30 °C (dec.)
